Data on 13 compounds can be found in publication PMC7004070 (Chemmedchem, 2019).

The target in one data set is T1, recombinant human sEH (Homo sapiens, UniProt P34913).
T1 sequence (P34913 1-555): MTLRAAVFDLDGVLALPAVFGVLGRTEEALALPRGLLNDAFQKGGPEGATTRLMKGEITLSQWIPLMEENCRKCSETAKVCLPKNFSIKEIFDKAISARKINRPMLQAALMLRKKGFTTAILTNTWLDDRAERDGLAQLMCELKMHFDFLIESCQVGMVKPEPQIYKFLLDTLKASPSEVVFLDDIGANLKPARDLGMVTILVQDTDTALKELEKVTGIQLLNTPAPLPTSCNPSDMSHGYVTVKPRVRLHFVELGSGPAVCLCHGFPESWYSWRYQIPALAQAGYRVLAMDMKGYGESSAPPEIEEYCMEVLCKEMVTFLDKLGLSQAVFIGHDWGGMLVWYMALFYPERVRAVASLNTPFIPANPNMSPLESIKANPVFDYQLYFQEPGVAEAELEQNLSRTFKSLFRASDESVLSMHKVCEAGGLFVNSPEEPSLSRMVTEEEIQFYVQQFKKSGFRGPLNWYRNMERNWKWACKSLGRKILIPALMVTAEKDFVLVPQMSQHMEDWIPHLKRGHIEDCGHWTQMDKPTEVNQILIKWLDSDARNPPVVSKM
Description: sEH activity assay on recombinant protein. It is filed as biochemical.

A further data set has as its target T2, human full-length FXR (Homo sapiens, UniProt Q96RI1).
T2 sequence (Q96RI1 1-486): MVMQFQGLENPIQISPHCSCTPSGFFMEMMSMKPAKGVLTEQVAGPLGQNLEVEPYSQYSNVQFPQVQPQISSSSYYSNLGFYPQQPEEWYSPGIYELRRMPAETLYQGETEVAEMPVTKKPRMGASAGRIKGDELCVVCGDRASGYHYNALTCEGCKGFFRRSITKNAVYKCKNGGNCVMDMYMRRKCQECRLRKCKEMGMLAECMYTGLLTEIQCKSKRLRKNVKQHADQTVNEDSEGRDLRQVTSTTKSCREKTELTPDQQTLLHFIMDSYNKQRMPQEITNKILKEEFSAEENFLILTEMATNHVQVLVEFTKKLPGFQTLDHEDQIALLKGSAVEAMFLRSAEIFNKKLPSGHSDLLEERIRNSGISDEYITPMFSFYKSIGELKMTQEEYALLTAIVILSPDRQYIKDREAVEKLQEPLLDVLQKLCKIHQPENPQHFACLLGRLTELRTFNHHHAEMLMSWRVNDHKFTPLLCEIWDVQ
T2 sequence (P19793 1-462 partner): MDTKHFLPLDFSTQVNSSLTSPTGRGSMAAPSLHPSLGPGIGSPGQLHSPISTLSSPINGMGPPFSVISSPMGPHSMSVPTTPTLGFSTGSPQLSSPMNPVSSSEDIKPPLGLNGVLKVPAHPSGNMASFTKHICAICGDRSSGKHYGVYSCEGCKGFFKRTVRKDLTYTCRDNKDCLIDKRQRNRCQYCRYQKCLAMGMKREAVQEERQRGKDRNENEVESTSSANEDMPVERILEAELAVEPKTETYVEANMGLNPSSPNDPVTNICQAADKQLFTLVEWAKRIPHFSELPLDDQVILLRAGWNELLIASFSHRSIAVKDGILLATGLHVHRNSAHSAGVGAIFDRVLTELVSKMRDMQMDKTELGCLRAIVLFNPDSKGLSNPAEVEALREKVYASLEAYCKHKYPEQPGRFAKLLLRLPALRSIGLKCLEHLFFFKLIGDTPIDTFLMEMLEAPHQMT
In words: full-length FXR-BSEP reporter gene assay. It is filed as cell-based. To be noted: for Emax: HeLa, read-out: FXR max. rel. act.; for FXR EC50: full-length FXR-BSEP reporter gene assay, HeLa cells, mean±S.E.M., n≥3, inactive = no significant activation up to 30 μM. Background: Reporter assays use an easily measured gene product as a stand-in for the process of interest.

The next data set deals with HepG2 cells. Description: WST-1 assay in HepG2 cells. To be noted: n=4; for cytotoxicity compared to 3: WST-1 assay in HepG2 cells; for concentration with anti-proliferative / toxic effect: WST-1 assay, HepG2 cells, 24 h. Format: cell-based. For orientation: Tetrazolium assays rely on reduction of a dye to a coloured formazan, in cell work by metabolically active cells.

Data set [1] deals with T3, sEH in HepG2 cell homogenate (Homo sapiens, UniProt P34913).
T3 sequence (P34913 1-555): T1 sequence (P34913 1-555)
Description: Cellular sEH assay: conversion of. It is filed as cell-based. To be noted: 10 μM; HepG2 homogenates; (±)14(15)-EET-d11; n≥4.

Data set [2] deals with FXR regulated genes (OSTα, SHP, CYP7A1) in HepG2 cells. It is filed as cell-based. To be noted: 10 μM, 12 h, qPCR, n=3. A general note: Quantitative PCR measures a nucleic acid by following its amplification.
For another data set, the target named is T4, human CysLT1R (Homo sapiens, UniProt Q9Y271).
T4 sequence (Q9Y271 1-337): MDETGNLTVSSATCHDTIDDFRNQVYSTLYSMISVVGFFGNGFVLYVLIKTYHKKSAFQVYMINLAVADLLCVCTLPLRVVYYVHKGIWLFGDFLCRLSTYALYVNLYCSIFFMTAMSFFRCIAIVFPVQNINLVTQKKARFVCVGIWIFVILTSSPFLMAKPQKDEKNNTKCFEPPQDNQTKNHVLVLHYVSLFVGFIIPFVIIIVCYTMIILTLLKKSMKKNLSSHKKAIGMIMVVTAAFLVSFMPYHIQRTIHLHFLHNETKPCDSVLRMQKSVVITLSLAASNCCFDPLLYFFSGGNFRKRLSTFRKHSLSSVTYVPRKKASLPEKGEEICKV
Description: CysLT1R antagonism assay, cell-based.

The subject of data set [3] is nuclear receptors related to FXR (PPARα, PPARγ, PPARδ, LXRα, LXRβ, RXRα, RARα, CAR). In words: Gal4 hybrid reporter gene assays for nuclear receptors related to FXR. It is filed as cell-based, human. The conditions noted are these: HEK293T, mean, n=2.
For the next data set, the target named is T5, RARα (Homo sapiens, UniProt P10276).
T5 sequence (P10276 183-417 limits assumed): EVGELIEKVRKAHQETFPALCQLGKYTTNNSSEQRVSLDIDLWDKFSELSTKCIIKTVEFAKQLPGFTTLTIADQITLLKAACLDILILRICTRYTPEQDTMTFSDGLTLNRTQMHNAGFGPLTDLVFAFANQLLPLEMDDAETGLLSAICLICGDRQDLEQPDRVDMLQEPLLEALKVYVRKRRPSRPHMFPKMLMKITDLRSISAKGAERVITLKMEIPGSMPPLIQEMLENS
Description: Gal4 hybrid reporter gene assay for RARα in HEK293T cells. It is filed as cell-based. To be noted: mean, n=2.

For another data set, the target named is CysLT1R. The conditions noted are these: read-out: CysLT1R Ki; cited from earlier work.

Entries after “also recorded” stand apart in the source; their conditions may differ.

Consider `COc1cc(C(=O)O)ccc1Cc1cn(C)c2ccc(NC(=O)c3ccncc3)cc12` [compound 7, 4‐((5‐(Isonicotinamido)‐1‐methyl‐1H‐indol‐3‐yl)methyl)‐3‐methoxybenzoic acid], for which, on recombinant human sEH, the IC50 (in general, the concentration at which inhibition is half-maximal) was > 100 µM. For the same compound, at human full-length FXR, the midpoint of the response, the EC50, lay at 0.91 ± 0.06 µM and the Emax was 15%.

For `COc1cc(C(=O)O)ccc1Cn1ccc2ccc(NC(=O)c3ccc(C(C)(C)C)cc3)cc21` [compound 13, 4‐((6‐(4‐(tert‐Butyl)benzamido)‐1H‐indol‐1‐yl)methyl)‐3‐methoxybenzoic acid], in the data set on HepG2 cells, the “cytotoxicity compared to 3” value is recorded as “reduced cytotoxicity; also recorded: strongly reduced toxicity” and the “concentration with anti-proliferative / toxic effect” value is > 10 µM. The “conversion of EET to DHET (cellular sEH inhibition)” value in data set [1] is “blocked EET conversion to DHETs”. Besides, in [2], the OSTα expression entry is given as “induced expression” and the SHP expression entry is recorded as “induced expression”. In addition, the “higher potency on FXR compared to 16” value at human full-length FXR (13 compared to 16) is given as “approx. 10 fold”. Moreover, on human full-length FXR, the Emax was 15%. Besides, on human full-length FXR (compared to 3), the “improvement of EC50 value on FXR compared to 3” value is reported as 15 fold. In addition, the IC50 on human CysLT1R is ~1 µM. Moreover, the “selectivity over nuclear receptors related to FXR” value in data set [3] is “selective; also recorded: high selectivity”.

In the case of `CC(C)(C)c1ccc(C(=O)Nc2ccc3ccn(Cc4ccc(C(=O)O)cc4)c3c2)cc1` [compound 16, 4‐((6‐(4‐(tert‐Butyl)benzamido)‐1H‐indol‐1‐yl)methyl)benzoic acid], in the data set with HepG2 cells, the “cytotoxicity compared to 3” value is listed as “reduced cytotoxicity; also recorded: strongly reduced toxicity” and the “concentration with anti-proliferative / toxic effect” value was > 10 µM. The RARα activation result at RARα was “considerable RARα agonism; also recorded: marked RARα activation”. For the same compound, the “conversion of EET to DHET (cellular sEH inhibition)” value in data set [1] is “blocked EET conversion to DHETs”. Moreover, in [2], the OSTα expression result was “induced expression” and the SHP expression entry is listed as “induced expression”. Also, the Emax on human full-length FXR is 24%. At human CysLT1R, the IC50 is > 1 µM. Also, in [3], the “selectivity over nuclear receptors related to FXR” value is “selective; also recorded: high selectivity”.

On to `Cn1cc(Cc2cccc(C(=O)O)c2)c2cc(NC(=O)c3ccc(C(C)(C)C)cc3)ccc21` [compound 10, 3‐((5‐(4‐(tert‐Butyl)benzamido)‐1‐methyl‐1H‐indol‐3‐yl)methyl)benzoic acid], for which, on recombinant human sEH, the IC50 is 22 ± 3 µM. Moreover, on human full-length FXR, the concentration giving a half-maximal response (EC50) (commonly the concentration that produces a half-maximal response) worked out at 1.19 ± 0.08 µM and the Emax was 18%.

For the compound `COc1cc(C(=O)O)ccc1Cn1cnc2ccc(NC(=O)c3ccc(C(C)(C)C)cc3)cc21` [compound 14, 4‐((6‐(4‐(tert‐Butyl)benzamido)‐1H‐benzoimidazol‐1‐yl)methyl)‐3‐methoxybenzoic acid], the IC50 on recombinant human sEH came out at 18 ± 5 µM. Further, at recombinant human sEH (benzimidazole 14 vs indole 13), the “decrease of activity on sEH compared to 13” value is recorded as “approx. 10 fold”. On human full-length FXR, the EC50 was 5.3 ± 0.4 µM and the Emax is 26%.

`Cn1cc(Cc2ccc(C(=O)O)cc2)c2cc(NC(=O)c3ccc(C(C)(C)C)cc3)ccc21` [compound 8, 4‐((5‐(4‐(tert‐Butyl)benzamido)‐1‐methyl‐1H‐indol‐3‐yl)methyl)benzoic acid]: the IC50 on recombinant human sEH came out at 12 ± 1 µM. Further, the EC50 on human full-length FXR was > 10 µM.

With `CC(C)(C)c1ccc(C(=O)Nc2ccc3ccn(Cc4cccc(C(=O)O)c4)c3c2)cc1` [compound 15, 3‐((6‐(4‐(tert‐Butyl)benzamido)‐1H‐indol‐1‐yl)methyl)benzoic acid], at recombinant human sEH, the IC50 was 4.3 ± 0.4 µM. On human full-length FXR, the “FXR EC50” value is “inactive”.

With `COc1cc(C(=O)O)ccc1Cc1cn(C)c2ccc(NC(=O)c3c(-c4c(Cl)cccc4Cl)noc3C(C)C)cc12` [compound 6, 4‐((5‐(3‐(2,6‐Dichlorophenyl)‐5‐isopropylisoxazole‐4‐carboxamido)‐1‐methyl‐1H‐indol‐3‐yl)methyl)‐3‐methoxybenzoic acid], the IC50 on recombinant human sEH was 3.3 ± 0.6 µM. Further, on human full-length FXR, the “FXR EC50” value was “inactive”.

Regarding `COc1cc(C(=O)O)ccc1Cc1cn(C)c2ccc(NC(=O)c3ccc(C(C)(C)C)cc3)cc12` [compound 5, 4‐((5‐(4‐(tert‐Butyl)benzamido)‐1‐methyl‐1H‐indol‐3‐yl)methyl)‐3‐methoxybenzoic acid], the IC50 on recombinant human sEH was > 30 µM. On human full-length FXR, the midpoint of the response, the EC50, lay at 0.6 ± 0.2 µM and the Emax is 29%.

In the case of `COc1ccc(C(=O)O)cc1Cc1cn(C)c2ccc(NC(=O)c3ccc(C(C)(C)C)cc3)cc12` [compound 9, 3‐((5‐(4‐tert‐Butylbenzamido)‐1‐methyl‐1H‐indol‐3‐yl)methyl)‐4‐methoxybenzoic acid], the IC50 on recombinant human sEH stood at 86 ± 10 µM. For the same compound, the “FXR EC50” value at human full-length FXR was “inactive”.

Take `COc1cc(C(=O)O)ccc1Cc1cn(C(C)C)c2ccc(NC(=O)c3ccc(C(C)(C)C)cc3)cc12` [compound 11, 4‐((5‐(4‐(tert‐Butyl)benzamido)‐1‐isopropyl‐1H‐indol‐3‐yl)methyl)‐3‐methoxybenzoic acid]: the half-inhibitory concentration (IC50) at recombinant human sEH was > 100 µM. At human full-length FXR, the EC50 worked out at 2.3 ± 0.1 µM and the Emax is 11%.

`COc1cc(C(=O)O)ccc1Cn1ccc2cc(NC(=O)c3ccc(C(C)(C)C)cc3)ccc21` [compound 12, 4‐((5‐(4‐(tert‐Butyl)benzamido)‐1H‐indol‐1‐yl)methyl)‐3‐methoxybenzoic acid]: the IC50 at recombinant human sEH was > 100 µM. In addition, on human full-length FXR, the midpoint of the response, the EC50, lay at 9.2 ± 0.8 µM and the Emax is 23%.

For `COc1cc(C(=O)NS(=O)(=O)c2ccccc2C)ccc1Cc1cn(C)c2ccc(NC(=O)OC3CCCC3)cc12` [compound 3, Zafirlukast, reference compound], the “concentration with anti-proliferative / toxic effect” value in the data set on HepG2 cells was ≥ 1 µM. Further, the Ki (usually a dissociation constant, usually derived from enzyme kinetics or from competition with a known ligand) on CysLT1R is 0.0003 µM.
